Several values for one entry are separate records, joined by “and”; a condition that tells them apart may be missing. Equal values may be shown once. Read-outs that look alike come from different tables or passages of the source.
Assays:
[1] = system: PTZ and audiogenic-induced seizures; parameters: method as in PMID 10816315; settings: PTZ and audiogenic-induced seizures in mice; cited from earlier work
[2] = biological target: native GABAA receptors from rat-brain homogenates
human GABAA α1β2γ2 [3] = biological target: T1, human GABAA α1β2γ2 (Homo sapiens, UniProt P14867+P18507); settings: for Binding affinity normalized to GABAA α2 (ratio of Ki values): Ki α1β2γ2 / Ki α2β2γ2
human GABAA α1β2γ2 [4] = biological target: T1, human GABAA α1β2γ2; experiment: biochemical
human GABAA α2β2γ2 [5] = biological target: T2, human GABAA α2β2γ2 (Homo sapiens, UniProt P18507+P47869); experiment: biochemical
human GABAA α3β2γ2 [6] = biological target: T3, human GABAA α3β2γ2 (Homo sapiens, UniProt P18507+P34903); experiment: biochemical
human GABAA α5β2γ2 [7] = biological target: T4, human GABAA α5β2γ2 (Homo sapiens, UniProt P18507+P31644); experiment: biochemical
human GABAA α2β2γ2 [8] = biological target: T2, human GABAA α2β2γ2
human GABAA α3β2γ2 [9] = biological target: T3, human GABAA α3β2γ2; settings: Ki α3β2γ2 / Ki α2β2γ2
human GABAA α5β2γ2 [10] = biological target: T4, human GABAA α5β2γ2; settings: Ki α5β2γ2 / Ki α2β2γ2
human GABAA α2β2γ2 [11] = biological target: T2, human GABAA α2β2γ2; remark: listed apart in the source
human GABAA α3β2γ2 [12] = biological target: T3, human GABAA α3β2γ2
human GABAA α5β2γ2 [13] = biological target: T4, human GABAA α5β2γ2
[14] = cited from earlier work
[15] = system: refractory epilepsy patients; parameters: method as in PMID 3828198; settings: dosages giving concentrations similar to those after clobazam dosing; cited from earlier work
[16] = system: pentylenetetrazole (PTZ)-induced seizures; parameters: method as in PMID 17092983; settings: greatest diazepam dosage, cited from earlier work
[17] = system: tonic convulsions following PTZ administration; parameters: method as in PMID 11021797; settings: cited from earlier work; for percentage of mice convulsing: 3 mg/kg
[18] = biological target: human GABAA-receptor complexes α1β2γ2, α2β2γ2, α3β2γ2, α5β2γ2

T4 sequence (P31644 32-462): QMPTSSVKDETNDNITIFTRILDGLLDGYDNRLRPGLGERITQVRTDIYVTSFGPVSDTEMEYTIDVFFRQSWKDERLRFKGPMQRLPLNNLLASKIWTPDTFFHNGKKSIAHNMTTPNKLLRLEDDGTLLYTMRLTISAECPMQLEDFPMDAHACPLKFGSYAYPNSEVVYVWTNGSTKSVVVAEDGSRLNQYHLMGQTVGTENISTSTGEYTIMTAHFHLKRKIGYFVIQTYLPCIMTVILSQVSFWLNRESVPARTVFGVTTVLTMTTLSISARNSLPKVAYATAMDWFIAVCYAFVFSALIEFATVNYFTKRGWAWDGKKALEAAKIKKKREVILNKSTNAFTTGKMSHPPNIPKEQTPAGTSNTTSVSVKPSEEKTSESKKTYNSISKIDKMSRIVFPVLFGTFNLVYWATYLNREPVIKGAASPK
T4 sequence (P47870 25-512 partner limits assumed): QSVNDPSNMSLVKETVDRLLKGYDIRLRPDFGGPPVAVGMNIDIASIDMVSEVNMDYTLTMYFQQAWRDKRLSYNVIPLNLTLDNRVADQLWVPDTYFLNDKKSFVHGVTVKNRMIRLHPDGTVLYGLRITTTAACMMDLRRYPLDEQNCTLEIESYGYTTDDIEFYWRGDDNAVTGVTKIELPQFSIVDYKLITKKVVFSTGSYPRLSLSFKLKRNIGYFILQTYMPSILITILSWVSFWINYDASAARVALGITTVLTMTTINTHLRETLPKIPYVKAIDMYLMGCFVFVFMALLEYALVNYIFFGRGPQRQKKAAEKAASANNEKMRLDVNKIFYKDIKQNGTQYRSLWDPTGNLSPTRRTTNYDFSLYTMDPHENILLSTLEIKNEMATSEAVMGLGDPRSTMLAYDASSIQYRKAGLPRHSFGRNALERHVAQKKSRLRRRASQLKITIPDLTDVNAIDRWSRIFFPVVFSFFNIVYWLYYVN
T4 sequence (P18507 40-475): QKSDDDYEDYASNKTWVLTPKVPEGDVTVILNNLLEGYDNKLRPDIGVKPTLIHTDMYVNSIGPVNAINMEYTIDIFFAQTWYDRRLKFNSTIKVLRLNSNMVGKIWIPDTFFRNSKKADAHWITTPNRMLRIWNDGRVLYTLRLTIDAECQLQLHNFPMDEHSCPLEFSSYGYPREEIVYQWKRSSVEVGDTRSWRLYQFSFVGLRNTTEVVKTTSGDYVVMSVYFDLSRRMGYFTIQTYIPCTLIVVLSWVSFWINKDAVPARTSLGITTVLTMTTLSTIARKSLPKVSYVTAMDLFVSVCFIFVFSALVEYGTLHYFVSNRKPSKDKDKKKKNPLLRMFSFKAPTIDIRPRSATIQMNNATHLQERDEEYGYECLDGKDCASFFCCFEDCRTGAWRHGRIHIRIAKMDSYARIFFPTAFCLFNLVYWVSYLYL
T3 sequence (P34903 29-492): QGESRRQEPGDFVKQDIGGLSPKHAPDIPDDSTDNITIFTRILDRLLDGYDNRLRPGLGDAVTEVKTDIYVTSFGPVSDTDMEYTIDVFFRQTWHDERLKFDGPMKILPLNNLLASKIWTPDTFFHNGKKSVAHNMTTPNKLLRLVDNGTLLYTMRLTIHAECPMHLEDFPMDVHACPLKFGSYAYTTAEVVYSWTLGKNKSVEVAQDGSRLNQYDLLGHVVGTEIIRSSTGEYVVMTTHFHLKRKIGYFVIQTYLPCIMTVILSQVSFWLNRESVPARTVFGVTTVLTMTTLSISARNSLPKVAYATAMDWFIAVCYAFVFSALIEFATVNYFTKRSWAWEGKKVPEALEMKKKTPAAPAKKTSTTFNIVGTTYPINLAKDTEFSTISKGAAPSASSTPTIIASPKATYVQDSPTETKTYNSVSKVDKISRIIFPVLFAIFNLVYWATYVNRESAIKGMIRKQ
T3 sequence (P47870 25-512 partner limits assumed): as the sequence (P47870 25-512 partner limits assumed) above
T3 sequence (P18507 40-475): as the sequence (P18507 40-475) above
T1 sequence (P14867 28-456): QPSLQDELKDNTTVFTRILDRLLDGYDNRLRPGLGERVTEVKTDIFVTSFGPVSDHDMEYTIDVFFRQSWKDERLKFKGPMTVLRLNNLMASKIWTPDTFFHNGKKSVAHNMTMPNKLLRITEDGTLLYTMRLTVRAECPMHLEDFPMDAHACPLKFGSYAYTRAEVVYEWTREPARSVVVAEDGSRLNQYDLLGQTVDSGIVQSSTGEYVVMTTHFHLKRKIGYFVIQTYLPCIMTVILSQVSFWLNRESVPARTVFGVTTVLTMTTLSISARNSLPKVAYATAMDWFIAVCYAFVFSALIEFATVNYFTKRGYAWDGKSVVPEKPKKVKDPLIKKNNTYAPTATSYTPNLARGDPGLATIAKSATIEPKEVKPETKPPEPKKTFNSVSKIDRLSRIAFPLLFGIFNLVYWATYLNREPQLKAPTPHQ
T1 sequence (P47870 25-512 partner limits assumed): as the sequence (P47870 25-512 partner limits assumed) above
T1 sequence (P18507 40-475): as the sequence (P18507 40-475) above
T2 sequence (P47869 29-451): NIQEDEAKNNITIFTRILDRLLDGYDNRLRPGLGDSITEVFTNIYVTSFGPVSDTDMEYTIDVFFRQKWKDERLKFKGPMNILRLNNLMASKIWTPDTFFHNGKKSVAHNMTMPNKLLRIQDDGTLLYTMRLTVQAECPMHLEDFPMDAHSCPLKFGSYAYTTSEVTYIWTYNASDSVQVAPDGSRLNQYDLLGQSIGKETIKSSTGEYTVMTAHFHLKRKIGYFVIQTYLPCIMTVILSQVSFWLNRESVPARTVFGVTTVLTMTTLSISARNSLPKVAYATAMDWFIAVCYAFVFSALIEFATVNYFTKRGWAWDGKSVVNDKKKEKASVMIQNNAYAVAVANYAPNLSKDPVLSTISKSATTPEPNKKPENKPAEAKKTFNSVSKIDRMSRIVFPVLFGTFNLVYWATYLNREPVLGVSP
T2 sequence (P47870 25-512 partner limits assumed): as the sequence (P47870 25-512 partner limits assumed) above
T2 sequence (P18507 40-475): as the sequence (P18507 40-475) above

Cn1ncnc1COc1nn2c(-c3cc(F)ccc3F)nnc2cc1C(C)(C)C [L-838,417]
anticonvulsant activity [1]: retains anticonvulsant activity

CN1C(=O)CC(=O)N(c2ccccc2)c2cc(Cl)ccc21 [Clobazam]
Ki [2]: 151 nM
Binding affinity normalized to GABAA α2 (ratio of Ki values) (human GABAA α1β2γ2 [3]): 2.5
Ki (human GABAA α1β2γ2 [4]): 519 nM
Ki (human GABAA α2β2γ2 [5]): 205 nM
Ki (human GABAA α3β2γ2 [6]): 753 nM
Ki (human GABAA α5β2γ2 [7]): 331 nM
Binding affinity normalized to GABAA α2 (ratio of Ki values) (human GABAA α2β2γ2 [8]): 1
Binding affinity normalized to GABAA α2 (ratio of Ki values) (human GABAA α3β2γ2 [9]): 3.7
Binding affinity normalized to GABAA α2 (ratio of Ki values) (human GABAA α5β2γ2 [10]): 1.6

O=C1CC(=O)N(c2ccccc2)c2cc(Cl)ccc2N1 [N-desmethylclobazam]
Ki [2]: 132 nM and 133 nM
Ki (human GABAA α1β2γ2 [3]): 631 nM and 634 nM
Binding affinity normalized to GABAA α2 (ratio of Ki values) (human GABAA α1β2γ2 [3]): 4.3
Ki (human GABAA α2β2γ2 [11]): 148 nM and 147 nM
Ki (human GABAA α3β2γ2 [12]): 661 nM and 668 nM
Ki (human GABAA α5β2γ2 [13]): 295 nM and 292 nM
half-life ([14]; humans): 79 h
concentration of N-CLB relative to the parent compound ([14]; prolonged clinical use of CLB): more than 2 fold
patients responding favorably [15]: 8 of 9
Binding affinity normalized to GABAA α2 (ratio of Ki values) (human GABAA α2β2γ2 [8]): 1
Binding affinity normalized to GABAA α2 (ratio of Ki values) (human GABAA α3β2γ2 [9]): 4.6
Binding affinity normalized to GABAA α2 (ratio of Ki values) (human GABAA α5β2γ2 [10]): 2.0

CN1C(=O)CN=C(c2ccccc2)c2cc(Cl)ccc21 [diazepam]
seizure level on the Racine scale ([16]; wild-type mice, reversed from 6): 1
seizure scoring on the Racine scale ([16]; α2(H101R) mice): approximately 3.5
percentage of mice convulsing ([17]; wild-type mice): approximately 20%
percentage of mice convulsing ([17]; α2(H101R) mice): approximately 50%
protection from tonic convulsions ([17]; 10 and 30 mg/kg, both wild-type and α2(H101R) mice): 100%

CN1C(=O)CN=C(c2ccccc2F)c2cc([N+](=O)[O-])ccc21 [^3H-flunitrazepam]
Kd ([2]; read-out: Kd (tracer equilibrium dissociation constant), saturation binding, rat-brain homogenates): 1.5 ± 0.2 nM

O=C1CN=C(c2ccccc2Cl)c2cc([N+](=O)[O-])ccc2N1 [Clonazepam]
Ki [2]: 0.263 nM and 0.26 nM
Binding affinity normalized to GABAA α2 (ratio of Ki values) (human GABAA α1β2γ2 [3]): 0.9
Ki [18]: 0.65 to 2.2 nM
Ki (human GABAA α1β2γ2 [4]): 0.65 nM
Ki (human GABAA α2β2γ2 [5]): 0.72 nM
Ki (human GABAA α3β2γ2 [6]): 2.24 nM
Ki (human GABAA α5β2γ2 [7]): 0.78 nM
Binding affinity normalized to GABAA α2 (ratio of Ki values) (human GABAA α2β2γ2 [8]): 1
Binding affinity normalized to GABAA α2 (ratio of Ki values) (human GABAA α5β2γ2 [10]): 1.1

Cc1ccc(-c2nc3ccc(C)cn3c2CC(=O)N(C)C)cc1 [Zolpidem]
Ki [18]: 30 to 5430 nM
Ki (human GABAA α5β2γ2 [7]): 5430 nM
